Assay results published in patent publication US20020002171A1, “Materials and methods for killing nematodes and nematode eggs” (priority 2000, published 2002).

Test system: Caenorhabditis elegans
Test: C. elegans L1 nematicidal dose response in 96-well plates, 5 day visual score (Example 2; same procedure for Example 7, Table 3)
Assay type: in vivo
Parameters: key to 5 Day Visual Score V1 / 5 Day Visual Score V2 / 5 Day Visual Score V3 / 5 Day Visual Score V4 / 5 Day Visual Score V6 / 5 Day Visual Score V5 / Initial HTS Run Visual Score / Follow-up HTS Run Visual Score: Dead: only stiff L1s (no movement); Dead (L4): worms are dead, but at a later larval stage; majority of worms are L1 (based on size) worms move when plate is tapped; majority of worms are L2 (based on size); majority of worms are L3 (based on size); majority of worms are L4 (based on size); AD: majority of worms are adult; #AD: 5 adult worms or less; B!: sterile (0-25 progeny); B: low broodsize (25-100 progeny); ˜B: moderate broodsize (100-250 progeny); <: reduced broodsize (250-500 progeny); OK: no effect (˜1000+ progeny)
Settings: for 5 Day Visual Score V1 / 5 Day Visual Score V2 / 5 Day Visual Score V4 / 5 Day Visual Score V5 / 5 Day Visual Score V6 / 5 Day Visual Score V3: dose response
Procedure, shortened: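 Scoring was by eye at 100× on day 5, after incubation at 20° C, of 20 C. elegans L1s per well fed 1% E. coli HB101 in NGM. Compound columns V1–V6 spanned 70 μM to 0.3 μM in 3-fold steps, with 1.4% DMSO in the top well and as control.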

Compound	Follow-up HTS Run % Run [%]	Follow-up HTS Run Visual Score	Follow-up HTS Run mOD [mOD]	Initial HTS Run % Run [%]	Initial HTS Run Visual Score	Initial HTS Run mOD [mOD]	5 Day Visual Score V1 (dilution V1, 5 day)	5 Day Visual Score V2 (dilution V2, 5 day)	5 Day Visual Score V4 (dilution V4, 5 day)	5 Day Visual Score V5 (dilution V5, 5 day)	5 Day Visual Score V6 (dilution V6, 5 day)	5 Day Visual Score V2 (dilution V2, day 5)	5 Day Visual Score V3 (dilution V3, day 5)	5 Day Visual Score V4 (dilution V4, day 5)	5 Day Visual Score V5 (dilution V5, day 5)	5 Day Visual Score V6 (dilution V6, day 5)	5 Day Visual Score V3 (dilution V3, 5 day)	5 Day Visual Score V1 (dilution V1, day 5)
Cc1cccc(C)c1N1CCN(c2nc(NC3CCCCCCCCCCC3)ns2)CC1 [compound 329]	78	Dead	125	100	Dead (L2/L3)	110	Dead	Dead	OK (no effect (˜1000+ progeny))	OK (no effect (˜1000+ progeny))	OK (no effect (˜1000+ progeny))							
C=CCN(CC=C)c1nc(NCCC(c2ccccc2)c2ccccc2)ns1 [compound 289]	86		139	104	L4/AD/B	114						˜B (moderate broodsize (100-250 progeny))	OK (no effect (˜1000+ progeny))	OK (no effect (˜1000+ progeny))	OK (no effect (˜1000+ progeny))	OK (no effect (˜1000+ progeny))		
COc1ccc(CCN(C)c2nc(NCc3ccc(C(F)(F)F)cc3)ns2)cc1OC [compound 317]	111	L2	179	108		119	Dead		OK (no effect (˜1000+ progeny))	OK (no effect (˜1000+ progeny))	OK (no effect (˜1000+ progeny))						OK (no effect (˜1000+ progeny))	
CC1CC(C)CN(c2nc(NCc3ccccc3)ns2)C1 (stereo not drawn) [compound 264]	110	L4/AD/B	177	104	L4/AD/B	114							< (reduced broodsize (250-500 progeny))	OK (no effect (˜1000+ progeny))	OK (no effect (˜1000+ progeny))	OK (no effect (˜1000+ progeny))		L2
Cc1cccc(C)c1N1CCN(c2nsc(N3CCC(O)CC3)n2)CC1 [compound 218]	78	Dead	125	91	1AD/B!	100						Dead		OK (no effect (˜1000+ progeny))	OK (no effect (˜1000+ progeny))	OK (no effect (˜1000+ progeny))		Dead
CCCCC(CC)CN(CC(CC)CCCC)c1nc(N2CCN(c3c(C)cccc3C)CC2)ns1 (stereo not drawn) [compound 230]	63	3AD/B	101	121	Dead/1AD/B!	133								< (reduced broodsize (250-500 progeny))	OK (no effect (˜1000+ progeny))	OK (no effect (˜1000+ progeny))		Dead
CCCCN(CC)c1nc(N2CCN(c3ncccn3)CC2)ns1 [compound 235]	127	L2 - 1/2 Dead	205	128	Dead (L3?)	141						#AD/˜B	OK (no effect (˜1000+ progeny))	OK (no effect (˜1000+ progeny))	OK (no effect (˜1000+ progeny))	OK (no effect (˜1000+ progeny))		Dead
